Legend:
[1] = target: α7 nAChR (Rattus norvegicus, UniProt Q05941); assay: [3H]-methyllycaconitine competition binding on rat hippocampal membranes; details: for Ki: read-out: α7 Ki, [3H]-methyllycaconitine, rat hippocampal membranes; for interaction with α7 nAChR: in words
[2] = target: α4β2 nAChR (Rattus norvegicus, UniProt P09483+P12390); assay: [3H]-epibatidine competition binding on rat cortical membranes; details: tested at 5 μM, ± standard error
[3] = target: α1βγδ muscle-type nicotinic receptors (Homo sapiens, UniProt P02708+P07510+Q07001); assay: [3H]-epibatidine competition binding on TE-671 cellular membranes; details: tested at 5 μM, ± standard error
[4] = target: α3β4 ganglion-type nicotinic receptors (Homo sapiens, UniProt P30926+P32297); assay: [3H]-epibatidine competition binding on SH-SY5Y cellular membranes
[5] = system: AChBP from Bt; assay: Dissociation constants with AChBP from Bulinus truncatus; assay type: binding; details: compound 2 vs compound 3 (OH to OCH3)
[6] = system: AChBP from Ac; assay: Dissociation constants with AChBP from Aplysia californica; assay type: binding; details: compound 2 vs compound 3 (OH to OCH3)
[7] = target: rat α7 nAChR (Rattus norvegicus, UniProt Q05941); assay: Patch-clamp electrophysiology in rat α7 nAChR; assay type: cell-based

Row | Compound | Ki [1] [nM] | α4β2 percent inhibition of control radioligand binding [2] [%] | interaction with α7 nAChR [1] | further results
1 | 5-(2-Furyl)spiro[1,3-dihydro-1,4-diazepine-2,3′-quinuclidine]-7-ol [Compound 2g] | 150 | 14 ± 3 | – | –
2 | 5-(2-Methoxyphenyl)spiro[1,3-dihydro-1,4-diazepine-2,3′-quinuclidine]-7-ol [Compound 2b] | 110 | 7 ± 1 | – | –
3 | 5-(4-Methoxyphenyl)spiro[1,3-dihydro-1,4-diazepine-2,3′-quinuclidine]-7-ol [Compound 2d] | 42 | 42 ± 14 | – | α1βγδ percent inhibition of control radioligand binding [3]: 38 ± 5%; α3β4 percent inhibition of control radioligand binding ([4]; tested at 5 μM, [3H]-epibatidine, SH-SY5Y cellular membranes, ± standard error): 63 ± 0.4%
4 | 5-Phenylspiro[1,3-dihydro-1,4-diazepine-2,3′-quinuclidine]-7-ol [Compound 2a] | 140 | 15 ± 1 | – | –
5 | COc1ccc(/C=C2\CCCN=C2c2cccnc2)c(OC)c1 [Compound 2, 3-(2,4-dimethoxybenzilidene)-anabaseine] | – | – | – | decrease in Kd value (affinity) vs compound 3, Bt [5]: 2.5 fold; loss in affinity vs compound 3, Ac [6]: 110 fold
6 | C1=NCC2(CN3CCC2CC3)NC=C1c1ccccc1 (stereo not shown) [Compound 2h, 6-phenylspiro[1,3-dihydro-1,4-diazepine-2,3′-quinuclidine]] | – | – | do not demonstrate any interaction | –
7 | O=C1NCC2(CN3CCC2CC3)NC(=O)C1c1ccccc1 (stereo not shown) [Compound 2i, 6-Phenylspiro[1,4-diazepane-2,3′-quinuclidine]-5,7-dione] | – | – | do not demonstrate any interaction | –
8 | COc1cc(O)ccc1/C=C1\CCCN=C1c1cccnc1 [Compound 3, 2-Methoxy-4-OH benzylidene anabaseine, reference compound] | – | – | – | inhibition at 5 µM ([4]; read-out: α3β4 percent inhibition of control radioligand binding): 75 ± 1%
9 | Oc1c(C2=NC3(CN2)CN2CCC3CC2)oc2ccccc12 (stereo not shown) [Compound 3a, 2-(3-Hydroxybenzofuran-2-yl)spiro[1,5-dihydroimidazole-4,3′-quinuclidine]] | – | – | – | EC50 [7]: 600 ± 500 nM; Emax [7]: 53 ± 4.4%
10 | c1ccc(C2=NC3(CN2)CN2CCC3CC2)cc1 (stereo not shown) [Compound 3c] | – | – | do not demonstrate any interaction | –
11 | c1ccc2oc(C3=NC4(CN3)CN3CCC4CC3)cc2c1 (stereo not shown) [Compound 3e, 2-Spiro[1,5-dihydroimidazole-4,3′-quinuclidine]-2-ylbenzo [b]furan] | – | – | do not demonstrate any interaction | –

Source: article PMC4791960 (European journal of medicinal chemistry, 2011)
